Data on six compounds can be found in article PMC6150270, “Solvent and Copper Ion-Induced Synthesis of Pyridyl–Pyrazole-3-One Derivatives: Crystal Structure, Cytotoxicity” (Molecules : A Journal of Synthetic Chemistry and Natural …, 2017).

The test system of one series is A549 tumor cell line. In words: MTT cytotoxicity assay, A549. In kind it is cell-based. Conditions: Homo sapiens; for IC50: 48 h, MTT, mean ± SD; for inhibition at 20 µM: complexes 1-5 at 20 μM, incubation 48 h, read-out: Inhibition rate A549. On the procedure: (§1) The cytotoxicities of compounds 1–5 against the human tumor cell lines BEL-7404, HepG2, NCI-H460, T-24 and A549, as well as human normal liver cell line HL-7702, were tested by the MTT assay. Cisplatin was also tested for comparison.
(§2) All the cells were maintained in DMEM (Dulbecco’s Modified Eagle Medium) supplemented with 10% fetal calf serum, 100 units/mL ampicillin and […] streptomycin sulfate at 37 °C in a humidified atmosphere under 5% CO2. Compounds 1–5 were dissolved in DMSO at a concentration of 2.0 mM stock solution. The stock was diluted by PBS to the required concentration immediately before use.
(§3) Cisplatin was prepared according to a literature procedure. The cells were all grown in 96-well, flat-bottomed microtiter plates. Compounds 1–5 and cisplatin were dissolved in the culture medium (containing 1% DMSO) to a concentration of 100 μg/mL. The resultant solutions were subsequently added to a set of wells. The wells for control contained the supplemented medium with 1% DMSO. The microtiter plates were incubated at 37 °C in a humidified atmosphere of 5% CO2/95% air for a further 48 h. At the end of each incubation period, the 3-(4,5-dimethylthiazol-2-yl)-2,5-diphenyltetrazolium bromide (MTT) solution (10 μL, 5 mg/mL) was added into each well and the cultures were further incubated for 6 h under the same conditions. After the removal of the supernatant, DMSO (100 μL) was added to dissolve the formazan crystals. The absorbance of the solution was read by an enzyme-labeled microplate reader with 490/630 nm double wavelength measurement. The cytotoxicity was evaluated based on the percentage of cell survival in a dose-dependent manner relative to the negative control. The final IC50 values were calculated by the Bliss method (n = 5). All tests were repeated in at least three independent trials.
In general terms: Formazan colour is commonly taken as a measure of viable cells.

Series [1] relates to normal liver cell line HL-7702. Nature of the series: MTT cytotoxicity assay, HL-7702. The conditions noted are these: normal liver cells; for IC50: 48 h, MTT, mean ± SD; for inhibition at 20 µM: read-out: Inhibition rate HL-7702. It is filed as cell-based, human. On the procedure:
as §1, §2, §3

A further series has as its system NCI-H460 tumor cell line. Nature of the series: MTT cytotoxicity assay, NCI-H460. In kind it is cell-based, human. Conditions: for IC50: 48 h, MTT, mean ± SD; for inhibition at 20 µM: read-out: Inhibition rate NCI-H460. On the procedure:
as §1, §2, §3

A further series has as its system HepG2 tumor cell line. In words: MTT cytotoxicity assay, HepG2. Conditions: for IC50 / inhibition at 20 µM: Homo sapiens, HepG2; for IC50: 48 h, mean ± SD; for IC50 / Growth inhibition on HepG2 cell lines (in words): MTT; for inhibition at 20 µM: read-out: Inhibition rate HepG2; for Cytotoxicity toward HepG2 enhanced compared with normal liver cell HL-7702: ratio of IC50 HL-7702 to IC50 HepG2. It is filed as cell-based, human. On the procedure:
as §1, §2, §3

The next series relates to BEL-7404 tumor cell line. In words: MTT cytotoxicity assay, BEL-7404. In kind it is cell-based, human. The conditions noted are these: for IC50: 48 h, MTT, mean ± SD; for inhibition at 20 µM: read-out: Inhibition rate BEL-7404. On the procedure: as §1, §2, §3
The test system of a further series is T-24 tumor cell line. In words: MTT cytotoxicity assay, T-24. In kind it is cell-based, human. The conditions noted are these: for IC50: 48 h, MTT, mean ± SD; for inhibition at 20 µM: read-out: Inhibition rate T-24. On the procedure:
as §1, §2, §3

Where [2] appears, read: Homo sapiens, L02, complexes 1-5 at 20 μM, incubation 48 h.
[3] abbreviates: Homo sapiens, NCI-H460, complexes 1-5 at 20 μM, incubation 48 h.
Setting [4] is: complexes 1-5 at 20 μM, incubation 48 h.
The mark [5] stands for this setting: Homo sapiens, BEL-7404, complexes 1-5 at 20 μM, incubation 48 h.
[6] abbreviates: Homo sapiens, complexes 1-5 at 20 μM, incubation 48 h.

For orientation: IC50 means the concentration needed to halve the response being measured. One may read the inhibition as the share of the control response that was lost under treatment. For `COC(=O)C1=NN(c2cccc(Br)n2)C(=O)C1(c1c(C(=O)OC)nn(-c2cccc(Br)n2)c1O)c1c(C(=O)OC)nn(-c2cccc(Br)n2)c1O` [Compound 3, Trimethyl 1,1′,1′′-tris(6-bromo-2-pyridinyl)-5,5′′-dihydroxy-5′-oxo-1′,5′-dihydro-1H,1′′H-4,4′: 4′,4′′-terpyrazole-3,3′,3′′-tricarboxylate], the half-maximal inhibitory concentration (IC50) is 33.6 ± 1.07 µM in the series with A549 tumor cell line; 151 ± 3.06 µM in series [1] (Homo sapiens, L02); 38 ± 0.89 µM with NCI-H460 tumor cell line (Homo sapiens, NCI-H460); 54.7 ± 0.81 µM with HepG2 tumor cell line; 112 ± 2.78 µM in the series with BEL-7404 tumor cell line (Homo sapiens, BEL-7404); 85.38 ± 0.67 µM in the series on T-24 tumor cell line (Homo sapiens). Besides, the inhibition at 20 µM in the series with A549 tumor cell line was determined as 33.3 ± 2.51%; in series [1] (setting [2]), 22.2 ± 1.05%; in the series on NCI-H460 tumor cell line (setting [3]), 42.5 ± 2.27%; in the series with HepG2 tumor cell line (setting [4]), 41 ± 1.27%; in the series on BEL-7404 tumor cell line (setting [5]), 24.6 ± 0.75%; in the series with T-24 tumor cell line (setting [6]), 32 ± 0.89%. In the series on HepG2 tumor cell line, the “Cytotoxicity toward HepG2 enhanced compared with normal liver cell HL-7702” value is 2.76 times.

On to `COC(=O)C1=NN(c2cccc(Br)n2)C2(C(C(=O)O)=NN(c3cccc(Br)n3)C2O)C1(C(=O)OC)c1c(C(=O)OC)nn(-c2cccc(Br)n2)c1O` (stereo not shown) [Compound 5, 1,8-Bis(6-bromopyridin-2-yl)-4-(1-(6-bromopyridin-2-yl)-5-hydroxy-3-(methoxycarbonyl)-1H-pyrazol-4-yl)-9-hydroxy-3,4-bis(methoxycarbonyl)-1,2,7,8-tetraazaspiro[4.4]nona-2,6-diene-6-carboxylic acid], for which the IC50 in the series on A549 tumor cell line amounted to 77.56 ± 0.72 µM; in series [1] (Homo sapiens, L02), 102.3 ± 0.85 µM; in the series with NCI-H460 tumor cell line (Homo sapiens, NCI-H460), 94.56 ± 0.41 µM; with HepG2 tumor cell line it was 175.2 ± 1.1 µM; with BEL-7404 tumor cell line (Homo sapiens, BEL-7404) it was 84.3 ± 1.01 µM; in the series with T-24 tumor cell line (Homo sapiens), 76 ± 1.16 µM. The inhibition at 20 µM is 29.4 ± 0.65% in the series with A549 tumor cell line; 26.9 ± 0.79% in series [1] (setting [2]); 25.4 ± 0.34% with NCI-H460 tumor cell line (setting [3]); 19.5 ± 1.05% in the series with HepG2 tumor cell line (setting [4]); 27.2 ± 0.94% with BEL-7404 tumor cell line (setting [5]); 35.9 ± 1.26% in the series with T-24 tumor cell line (setting [6]).

On to `COC(=O)c1cc(O)n(-c2cccc(Br)n2)n1` [Compound 2, Methyl 1-(6-bromo-2-pyridinyl)-5-hydroxy-1H-pyrazole-3-carboxylate], for which the IC50 was found to be 44.8 ± 1.12 µM in the series on A549 tumor cell line; 118 ± 3.34 µM in series [1] (Homo sapiens, L02); 40.7 ± 0.54 µM with NCI-H460 tumor cell line (Homo sapiens, NCI-H460); 29.8 ± 0.91 µM with HepG2 tumor cell line; 125 ± 1.87 µM with BEL-7404 tumor cell line (Homo sapiens, BEL-7404); 46.2 ± 0.87 µM in the series on T-24 tumor cell line (Homo sapiens). The inhibition at 20 µM came out at 22.4 ± 1.74% in the series with A549 tumor cell line; 24.7 ± 0.59% in series [1] (setting [2]); 38 ± 0.62% in the series with NCI-H460 tumor cell line (setting [3]); 43 ± 0.74% with HepG2 tumor cell line (setting [4]); 20.2 ± 1.18% in the series with BEL-7404 tumor cell line (setting [5]); 42.5 ± 0.96% with T-24 tumor cell line (setting [6]). Besides, the “Growth inhibition on HepG2 cell lines (in words)” value in the series with HepG2 tumor cell line was “weakly growth inhibition”. In the series with HepG2 tumor cell line, the “Cytotoxicity toward HepG2 enhanced compared with normal liver cell HL-7702” value was found to be 3.98 times.

As for `COC(=O)C1=NN(c2cccc(Br)n2)C2(C(C(=O)OC)=NN(c3cccc(Br)n3)C2O)C1(C(=O)OC)c1c(C(=O)OC)nn(-c2cccc(Br)n2)c1O` (stereo not shown) [Compound 4, Trimethyl-1,8-bis(6-bromopyridin-2-yl)-4-(1-(6-bromopyridin-2-yl)-5-hydroxy-3-(methoxycarbonyl)-1H-pyrazol-4-yl)-9-hydroxy-1,2,7,8-tetraazaspiro[4.4]nona-2,6-diene-3,4,6-tricarboxylate], the IC50 in the series with A549 tumor cell line amounted to 28.1 ± 1.01 µM; in series [1] (Homo sapiens, L02), 96.14 ± 0.49 µM; in the series with NCI-H460 tumor cell line (Homo sapiens, NCI-H460) it was 66.48 ± 0.57 µM; with HepG2 tumor cell line, 10.7 ± 0.38 µM; in the series with BEL-7404 tumor cell line (Homo sapiens, BEL-7404), 41.81 ± 0.37 µM; with T-24 tumor cell line (Homo sapiens) it was 42.9 ± 1.41 µM. The inhibition at 20 µM in the series with A549 tumor cell line turned out to be 40.2 ± 0.44%; in series [1] (setting [2]), 35.1 ± 1.34%; in the series on NCI-H460 tumor cell line (setting [3]), 33.6 ± 1.38%; with HepG2 tumor cell line (setting [4]), 53.3 ± 0.92%; in the series on BEL-7404 tumor cell line (setting [5]), 39.6 ± 1.43%; in the series on T-24 tumor cell line (setting [6]), 43.2 ± 1.15%. The “Increase in HepG2 cytotoxicity compared to the free ligand 5” value in the series on HepG2 tumor cell line (IC50 of 5 relative to IC50 of 4, HepG2) is on record as “approximately 16.44 fold”. In addition, the “Cytotoxicity toward HepG2 enhanced compared with normal liver cell HL-7702” value in the series with HepG2 tumor cell line came to 9.02 times.

On to `COC(=O)c1cc(OC(C)=O)n(-c2cccc(Br)n2)n1` [Compound 1, Methyl 5-(acetyloxy)-1-(6-bromo-2-pyridinyl)-1H-pyrazole-3-carboxylate], for which the IC50 in the series on A549 tumor cell line was determined as 37.6 ± 1.03 µM; in series [1] (Homo sapiens, L02) it was 111 ± 2.84 µM; with NCI-H460 tumor cell line (Homo sapiens, NCI-H460), 109 ± 1.65 µM; in the series on HepG2 tumor cell line it was 37.1 ± 0.54 µM; with BEL-7404 tumor cell line (Homo sapiens, BEL-7404), 66.5 ± 1.13 µM; with T-24 tumor cell line (Homo sapiens), 70.5 ± 1.33 µM. Also, the inhibition at 20 µM in the series with A549 tumor cell line came to 31.1 ± 1.39%; in series [1] (setting [2]) it was 26.5 ± 0.42%; with NCI-H460 tumor cell line (setting [3]), 34 ± 1.76%; in the series with HepG2 tumor cell line (setting [4]), 47.21 ± 0.44%; with BEL-7404 tumor cell line (setting [5]), 38.2 ± 1.99%; in the series on T-24 tumor cell line (setting [6]), 37.6 ± 1.72%. In the series with HepG2 tumor cell line, the “Growth inhibition on HepG2 cell lines (in words)” value is “weakly growth inhibition”. Besides, the “Cytotoxicity toward HepG2 enhanced compared with normal liver cell HL-7702” value in the series with HepG2 tumor cell line was 2.98 times.

On to `N.N.[Cl][Pt][Cl]` [Cisplatin, reference compound], for which the half-maximal inhibitory concentration (IC50) in series [1] turned out to be 5.63 ± 0.32 µM; in the series with NCI-H460 tumor cell line, 18.9 ± 1.02 µM; in the series on BEL-7404 tumor cell line, 12.4 ± 0.38 µM; in the series on T-24 tumor cell line it was 28.1 ± 1.88 µM. The “Inhibition rate HL-7702” value in series [1] (setting [4]) was 73.58±2.30. For the same compound, the “Inhibition rate NCI-H460” value in the series with NCI-H460 tumor cell line (setting [4]) is 50.88±3.69. In addition, the “Inhibition rate HepG2” value in the series on HepG2 tumor cell line (setting [4]) is 60.63±0.99. The “Inhibition rate BEL-7404” value in the series with BEL-7404 tumor cell line (setting [4]) stood at 55.15±1.18. Further, the “Inhibition rate T-24” value with T-24 tumor cell line (setting [4]) was 47.58±2.65.
